Measurements: paper PMC6121244, “Differences in Functional Expression of Connexin43 and NaV1.5 by Pan- and Class-Selective Histone Deacetylase Inhibition in Heart” (International Journal of Molecular Sciences, 2018)
Like-named read-outs stand apart in the source and are kept apart here.

How the values were obtained:
[1] = test system: total HDAC activity in cultured neonatal mouse ventricular cardiomyocytes; assay: Fluor de Lys total HDAC activity assay in cultured ventricular cardiomyocytes; format: cell-based; conditions: NMVMs, 18–24 h treatment
Description: Neonatal mice born from an inbred C57BL/6 mouse colony were anesthetized using isoflurane and the hearts were excised in accordance with procedures approved by the SUNY Upstate Medical University Institutional Animal Care and Use Committee (IACUC) # 263 on 15 March 2017. The excised hearts were separated into atria and ventricles and exposed to collagenase solution for digestion. The dissociated cells were pre-plated for 30 min to reduce fibroblast content by differential adhesion and the supernatant was collected, centrifuged and re-suspended in 1 mL/heart of M199/10% FBS culture media. The primary cells were plated into 96-well plates for HDAC activity assays, 35 mm culture dishes for patch clamp electrophysiology, or 60 mm culture dishes and homogenized after 3 days for Western blots.
Aliquots of 2 × 10^5 ventricular myocytes per well (96-well plate) were grown in 200 μL of 200 μM bromodeoxyuridine (BrDU)/M199, exchanged daily. Cell densities were counted with a hemocytometer and seeded into the wells. Wells were incubated with 2000 pmoles of the acetylated Fluor-de-Lys® substrate for 8 h during HDAC inhibition. […]

[2] = test system: ventricular gap junction conductance (gj), Cx43-mediated; assay: Gap junction conductance (gj), dual whole cell patch clamp on NMVM cell pairs; format: cell-based, mouse; conditions: 10 or 25 nM ricolinostat, 18–24 h
Description: Final DMSO levels were <0.005% (vol/vol).
Gap junction currents (Ij) were recorded in the dual whole cell configuration according to previously published methods. Upon establishing a dual whole cell patch, Ij was recorded using a 30 s, 20 mV trans-junctional voltage protocol. All dual whole cell current recordings were low-pass filtered at 500 Hz and digitized at 2 KHz using pClamp 8.2 and graphical analysis performed using Origin 7.5 or 8.6 software as previously described.

[3] = test system: cardiac sodium current (INa) in NMVMs, primarily NaV1.5; assay: Cardiac sodium current (INa) density and Vm-dependent gNa activation/inactivation, whole cell patch clamp; format: cell-based, mouse
Source text: Since both the activation and inactivation of INa are dependent on the membrane potential (Vm), we calculated the normalized Na^+ conductance (gNa) by dividing the average peak INa by the difference between Vm and the reversal potential (Erev) for INa, and then divided the gNa value for each Vm by the maximum gNa value for each experiment. The gNa–Vm curves were fit with a Boltzmann function gNa= gNamax+ (gNa− gNamax)/[1+exp((Vm− V1/2)/dVm)] using Origin 8.6. […] Final DMSO levels were <0.005% (vol/vol).

late INa in NMVMs = assay: Late INa, whole cell patch clamp; format: cell-based, mouse; conditions: 25 nM ricolinostat 18–24 h, Vm ramp
Source text: Increases in late or persistent INa have been linked to cardiac arrhythmias and heart failure. […] . Subsequently, we modified a voltage clamp ramp protocol designed to generate late INa I–V relationships. […] .

[4] = test system: Cx43 protein expression in NMVMs; assay: Western blot of Cx43 protein level; format: cell-based, mouse; conditions: 25 nM ricolinostat, 24 h
[5] = test system: NaV1.5 protein expression in NMVMs; assay: Western blot of NaV1.5 protein level; format: cell-based, mouse; conditions: 25 nM ricolinostat, 24 h
HDAC1 = test system: HDAC1; set-up: method as in PMID 22262760; conditions: cited from earlier work
HDAC2 = test system: HDAC2; set-up: method as in PMID 22262760; conditions: cited from earlier work
HDAC3 = test system: HDAC3; set-up: method as in PMID 22262760; conditions: cited from earlier work
HDAC8 = test system: HDAC8; set-up: method as in PMID 22262760; conditions: cited from earlier work
HDAC4 = test system: HDAC4; set-up: method as in PMID 22262760; conditions: cited from earlier work
HDAC5 = test system: HDAC5; set-up: method as in PMID 22262760; conditions: cited from earlier work
HDAC7 = test system: HDAC7; set-up: method as in PMID 22262760; conditions: cited from earlier work
HDAC9 = test system: HDAC9; set-up: method as in PMID 22262760; conditions: cited from earlier work
[6] = test system: acetyl-α-tubulin and acetyl-histone 3; assay: Western blot of acetylation markers; conditions: 25 nM ACY-1215, 24 h
IK,to and IK,ss in NMVMs = assay: Transient and steady state outward K+ currents, whole cell patch clamp; conditions: 25 nM ACY-1215, 24 h
[7] = 25 nM ricolinostat, listed as ricolinostat

O=C(CCCCCCNC(=O)c1cnc(N(c2ccccc2)c2ccccc2)nc1)NO [Ricolinostat, ricolinostat]
C1, decay constant of first exponential component of HDAC inhibition curve ([1]; double exponential fit): 16.9 ± 15.1 nM
C2, decay constant of second exponential component of HDAC inhibition curve ([1]; double exponential fit): 204 ± 52 nM
IC50 ([1]; read-out: IC50(1), high affinity site, total HDAC activity, IC50 = 0.693·C1): 12 nM
IC50 ([1]; read-out: IC50(1), high affinity site, total HDAC activity, IC50 = 0.693·C1, listed as ACY-1215): 11.7 ± 10.5 nM
IC50 ([1]; read-out: IC50(2), low affinity site, total HDAC activity, IC50 = 0.693·C2): 140 nM
IC50 ([1]; read-out: IC50(2), low affinity site, total HDAC activity, IC50 = 0.693·C2, listed as ACY-1215): 141 ± 36 nM
effect on ventricular gj [2]: modest but non-significant increases and decreases in gj, respectively
increase in peak INa ([3]; 25 nM ricolinostat, not statistically significant (p = 0.054, one-way ANOVA)): 93%
effect on peak INa density ([3]; 10 and 25 nM ricolinostat): concentration-dependent, but non-significant, increase
effect on late INa current density (late INa in NMVMs): no increase in late INa
Cx43 protein level [4]: no significant changes
NaV1.5 protein level [5]: no significant changes
IC50 (HDAC7): 1400 nM
Ac-H3 and Ac-α-tubulin signals [6]: only increased the Ac-α-tubulin signal
transient outward and steady state K+ currents (IK,to and IK,ss in NMVMs): no si gni ficant chang es
